From patent US20250197389A1, “NITROGEN-CONTAINING HETEROCYCLIC COMPOUND” (SHANGHAI SHIJIANG BIOTECHNOLOGY CO., LTD, priority 2022, published 2025)
pIC50: −log10 of the molar value.

Experiments:
mPTP-inactive Daoy cell = test: Inhibitory effect on mPTP-inactive Daoy cell (PPIF shRNA; Promega CellTiter-Glo, intracellular ATP); assay type: cell-based, human; conditions: Homo sapiens, Daoy, Daoy cell transfected with virus vector carrying PPIF shRNA
Source text: The activity of mitochondria permeability transition pore (mPTP) was regulated by the PPIF protein. […] PPIF protein activity was restricted by the expression level of PPIF protein in cell.

mPTP-active Daoy cell = test: Inhibitory effect on mPTP-active Daoy cell (Promega CellTiter-Glo, intracellular ATP); assay type: cell-based, human; conditions: Homo sapiens, Daoy, Daoy cell transfected with empty virus vector without PPIF shRNA

Compound	pIC50 (mPTP-inactive Daoy cell)	pIC50 (mPTP-active Daoy cell)
CC1c2c(ccc3c2OCO3)C(CCCc2ccccc2)=C2c3cc4c(cc3CCN21)OCO4 (stereo not drawn) [AB35427]	5.83	5.49
ClC(Cl)(Cl)C1c2c(ccc3c2OCO3)C(CCCc2ccccc2)=C2c3cc4c(cc3CCN21)OCO4 (stereo not drawn) [AB35428]	5.25	4.89
COc1ccc2c(c1OCCCCN)C(C)N1CCc3cc4c(cc3C1=C2)OCO4 (stereo not drawn) [AB35429]	5.65	5.28
COc1ccc2c(c1OCCCBr)C(C1CCCC1)N1CCc3cc4c(cc3C1=C2)OCO4 (stereo not drawn) [AB35430]	5.62	5.29
COc1ccc2c(c1OCCCCl)C(C1CCCC1)N1CCc3cc4c(cc3C1=C2)OCO4 (stereo not drawn) [AB35434]	5.61	5.28
COc1ccc2c(c1OC)C(C1CCCC1)N1CCc3cc4c(cc3C1=C2CCCc1ccccc1)OCO4 (stereo not drawn) [AB35436]	5.64	5.32
COc1ccc2c(c1OC/C=C(\C)CCC=C(C)C)C(C1CCCC1)N1CCc3cc4c(cc3C1=C2)OCO4 (stereo not drawn) [AB35438]	6.08	5.73
COc1ccc2c(c1OCCCCCCCl)C(C1CCCC1)N1CCc3cc4c(cc3C1=C2)OCO4 (stereo not drawn) [AB35440]	5.94	5.63
COc1ccc2c(c1OCCCCl)C(C(Cl)(Cl)Cl)N1CCc3cc4c(cc3C1=C2)OCO4 (stereo not drawn) [AB35441]	5.90	5.54
COc1ccc2c(c1OCCCN1CCCCC1)C(C)N1CCc3cc4c(cc3C1=C2)OCO4 (stereo not drawn) [AB35442]	4.94	4.97
COc1ccc2c(c1OCCN1CCCCC1)C(C)N1CCc3cc4c(cc3C1=C2)OCO4 (stereo not drawn) [AB35443]	4.51	4.52
COc1ccc2c(c1OC)C(C(Cl)(Cl)Cl)N1CCc3cc4c(cc3C1=C2CCc1ccccc1)OCO4 (stereo not drawn) [AB35444]	5.48	5.16
CCCCN1CCN(c2c(OC)ccc3c2C(C(Cl)(Cl)Cl)N2CCc4cc5c(cc4C2=C3)OCO5)CC1 (stereo not drawn) [AB35445]	5.20	4.92
COc1ccc2c(c1OCCN(C)C)C(C(Cl)(Cl)Cl)N1CCc3cc4c(cc3C1=C2)OCO4 (stereo not drawn) [AB35446]	4.75	4.79
COc1ccc2c(c1OC)C(C(Cl)(Cl)Cl)N1CCc3cc4c(cc3C1=C2Cc1ccccn1)OCO4 (stereo not drawn) [AB35447]	4.59	4.64
COc1ccc2c(c1OC)C(C1CCCC1)N1CCc3cc4c(cc3C1=C2CCc1ccccc1)OCO4 (stereo not drawn) [AB35448]	5.76	5.45
COc1ccc2c(c1N1CCC(C)CC1)C(C(Cl)(Cl)Cl)N1CCc3cc4c(cc3C1=C2)OCO4 (stereo not drawn) [AB35453]	6.37	5.91
COc1ccc2c(c1OCCCCOc1ccccc1)C(C1CCCC1)N1CCc3cc4c(cc3C1=C2)OCO4 (stereo not drawn) [AB35454]	5.89	5.53
COc1ccc2c(c1OCCCCCCNC(=O)OC(C)(C)C)C(C1CCCC1)N1CCc3cc4c(cc3C1=C2)OCO4 (stereo not drawn) [AB35455]	5.83	5.45
COc1ccc2c(c1OCCCCl)C(C)N1CCc3cc4c(cc3C1=C2)OCO4 (stereo not drawn) [AB35456]	5.56	5.24
COc1ccc2c(c1NCCc1ccccc1)C(C1CCCC1)N1CCc3cc4c(cc3C1=C2)OCO4 (stereo not drawn) [AB35457]	5.82	5.49
COc1ccc2c(c1OCCCCCCBr)C(C1CCCC1)N1CCc3cc4c(cc3C1=C2)OCO4 (stereo not drawn) [AB35458]	5.74	5.41
COc1ccc2c(c1OC(=O)CC13CC4CC(CC(C4)C1)C3)C(C1CCCC1)N1CCc3cc4c(cc3C1=C2)OCO4 (stereo not drawn) [AB35459]	5.21	4.90
COc1ccc2c(c1OC)C(C1CCCC1)N1CCc3cc4c(cc3C1=C2Cc1ccc(C(C)C)cc1)OCO4 (stereo not drawn) [AB35460]	6.11	5.71

Compound	pIC50 (mPTP-inactive Daoy cell)	pIC50 (mPTP-active Daoy cell)
COc1ccc2c(c1N1CCC(NC(=O)OC(C)(C)C)CC1)C(C(Cl)(Cl)Cl)N1CCc3cc4c(cc3C1=C2)OCO4 (stereo not drawn) [AB35465]	5.57	5.27
COc1ccc2c(c1OCCCBr)C(C(Cl)(Cl)Cl)N1CCc3cc4c(cc3C1=C2)OCO4 (stereo not drawn) [AB35466]	6.04	5.66
C1=C2c3cc4c(cc3CCN2C(C2CCCC2)c2cc3c(cc21)OCO3)OCO4 (stereo not drawn) [AB35467]	5.09	4.79
COc1ccc2c(c1OC)C(C)N1CCc3cc4c(cc3C1=C2CCCCc1ccccc1)OCO4 (stereo not drawn) [AB35468]	5.98	5.64
COc1ccc2c(c1OC)C(C(Cl)(Cl)Cl)N1CCc3cc4c(cc3C1=C2CCCCc1ccccc1)OCO4 (stereo not drawn) [AB35469]	5.95	5.62
COc1ccc2c(c1OCCCCCCCl)C(C(Cl)(Cl)Cl)N1CCc3cc4c(cc3C1=C2)OCO4 (stereo not drawn) [AB35475]	5.91	5.58
COc1ccc2c(c1OCCCCOc1ccccc1)C(C(Cl)(Cl)Cl)N1CCc3cc4c(cc3C1=C2)OCO4 (stereo not drawn) [AB35476]	5.97	5.63
COc1ccc2c(c1OCCCF)C(C(Cl)(Cl)Cl)N1CCc3cc4c(cc3C1=C2)OCO4 (stereo not drawn) [AB35478]	5.82	5.42
COc1ccc2c(c1OC)C(C(Cl)(Cl)Cl)N1CCc3cc4c(cc3C1=C2CCCc1ccccc1)OCCO4 (stereo not drawn) [AB35484]	6.01	5.51
COc1ccc2c(c1OCCCF)C(C)N1CCc3cc4c(cc3C1=C2)OCO4 (stereo not drawn) [AB35485]	5.28	4.79
COc1ccc2c(c1NCCc1ccccc1)C(C(Cl)(Cl)Cl)N1CCc3cc4c(cc3C1=C2)OCO4 (stereo not drawn) [AB35486]	6.64	6.15
CCCCCCOc1c(OC)ccc2c1C(C(Cl)(Cl)Cl)N1CCc3cc4c(cc3C1=C2)OCO4 (stereo not drawn) [AB35487]	6.33	5.75
CCC1=C2c3cc4c(cc3CCN2C(C(Cl)(Cl)Cl)c2c1ccc(OC)c2OC)OCO4 (stereo not drawn) [AB35488]	5.69	5.28
CCCCCCC1=C2c3cc4c(cc3CCN2C(C2CCCC2)c2c1ccc(OC)c2OC)OCO4 (stereo not drawn) [AB35489]	6.10	5.77
COc1ccc2c(c1OCCCCl)C(C1CCC1)N1CCc3cc4c(cc3C1=C2)OCO4 (stereo not drawn) [AB35490]	5.42	4.97
COc1ccc2c(c1OCCCCl)C(C1CCCCC1)N1CCc3cc4c(cc3C1=C2)OCO4 (stereo not drawn) [AB35491]	5.58	5.22
CCCC1=C2c3cc4c(cc3CCN2C(C(Cl)(Cl)Cl)c2c1ccc(OC)c2OC)OCO4 (stereo not drawn) [AB35492]	5.87	5.42
COc1ccc2c(c1OC)C(C)N1CCc3cc4c(cc3C1=C2CCCc1ccccc1)OCO4 (stereo not drawn) [AB35493]	5.99	5.48
CCCCOc1c(OC)ccc2c1C(C(Cl)(Cl)Cl)N1CCc3cc4c(cc3C1=C2)OCO4 (stereo not drawn) [AB35494]	6.44	5.89
COc1ccc2c(c1OCCCCCl)C(C(Cl)(Cl)Cl)N1CCc3cc4c(cc3C1=C2)OCO4 (stereo not drawn) [AB35496]	5.28	4.91
CCCCCCCCC1=C2c3cc4c(cc3CCN2C(C(Cl)(Cl)Cl)c2c1ccc(OC)c2OC)OCO4 (stereo not drawn) [AB35497]	5.94	5.48
COc1ccc2c(c1OC)C(C)N1CCc3cc4c(cc3C1=C2CCc1ccccc1)OCO4 (stereo not drawn) [AB35498]	5.51	5.20
CCOc1c(OC)ccc2c1C(C(Cl)(Cl)Cl)N1CCc3cc4c(cc3C1=C2)OCO4 (stereo not drawn) [AB35499]	5.50	5.19
COc1ccc2c(c1OC)C(C1CCCC1)N1CCc3cc4c(cc3C1=C2CCCCCCCl)OCO4 (stereo not drawn) [AB35500]	5.77	5.46
